From US11008339B2, “Substituted pyrazole compounds containing pyrimidine and preparation method and use thereof” (Shenyang Sinochem Agrochemicals R&D Co., Ltd., priority 2015, dated 2021)
Read-outs that look alike come from different tables or passages of the source.

Key:
[1] = system: rice blast; assay: microbe, parasite or virus in culture; format: cell-based; conditions: Pyricularia oryzae, 24 h, read-out: inhibition rate against rice blast
[2] = system: carmine spider mite; assay: Bioactivity test against carmine spider mite (airbrush spray); format: in vivo; conditions: contrastive test (Table 135)
Method: (§1) Compounds were dissolved in mixed solvent (acetone:methanol=1:1), and diluted to required concentration with water containing 0.1% of tween 80.
(§2) Diamond back moth, armyworm, peach aphid and carmine spider mite were used as targets and the method of spraying by airbrush was used for determination of insecticidal biassays.
The method: Broadbean shoots with two true leaves in pot were taken, the healthy adults of carmine spider mite were inoculated to the leaves. The adults were counted and then sprayed with airbrush at the pressure of 0.7 kg/cm^2 and at dose of 0.5 ml. 3 replicates were set for each treatment. And then they were maintained in standard observation room. Scores were conducted and mortalities were calculated after 72 hrs.

[3] = system: cucumber downy mildew; assay: Protective activity in vivo (whole plant spray) against cucumber downy mildew; conditions: for inhibition at 25 µg/mL: Cucumis sativus, read-out: protective activity (%) against cucumber downy mildew
Method: (§3) The method is as followed: The whole plant is used in this test. The compound is dissolved in a proper solvent to get mother solution. The proper solvent is selected from acetone, methanol, DMF and so on according to their dissolving capability to the sample. The volume rate of solvent and testing solution (v/v) is equal to or less than 5%. […] The testing solution is sprayed to the host plant by a special plant sprayer. The plant is inoculated with fungus after 24 hours. According to the infecting characteristic of fungus, the plant is stored in a humidity chamber and then transferred into greenhouse after infection is finished. And the other plants are placed in greenhouse directly.

[4] = system: wheat powdery mildew; assay: Protective activity in vivo (whole plant spray) against wheat powdery mildew; conditions: 100 mg/L, comparative test (Table 130); for inhibition at 100 µg/mL: Triticum aestivum
Method: as §3

[5] = system: cucumber gray mold; assay: Fungicidal activity in vitro (96-well, inhibition rate) against cucumber gray mold; format: cell-based; conditions: 24 hours
[6] = system: cucumber anthracnose; assay: Protective activity in vivo (whole plant spray) against cucumber anthracnose; conditions: for inhibition at 100 µg/mL: Cucumis sativus, read-out: protective activity (%) against cucumber anthracnose; for control against cucumber anthracnose: 6.25 ppm, protective, in vivo
Method: as §3

[7] = system: corn rust; assay: Protective activity in vivo (whole plant spray) against corn rust; conditions: comparative test (Table 131)
Method: as §3

[8] = system: diamond back moth; assay: Bioactivity test against diamond back moth (airbrush spray, leaf disc); format: in vivo; conditions: for Insecticidal activity against diamond back moth (%): 600 mg/L, contrastive test (Table 133)
Method: as §1, §2
The method of spraying by airbrush: The cabbage leaves were made into plates of 2 cm diameter by use of punch. A test solution (0.5 ml) was sprayed by airbrush at the pressure of 0.7 kg/cm^2 to both sides of every plate. 10 Second instar larvae were put into the petri-dishes after the leaf disc air-dried and 3 replicates were set for each treatment. Then the insects were maintained in observation room (25° C., 60˜70% R.H.). Scores were conducted and mortalities were calculated after 72 h.

[9] = system: Green peach aphids (Myzus Persicae Sulzer); assay: Bioactivity test against green peach aphid (airbrush foliar spray); format: in vivo; conditions: 100 mg/L, contrastive test (Table 134)
Method: as §1, §2
Method: Filter papers were put in culture dishes (Diameter=6 cm), and water was dripped on filter papers for preserving moisture. Green peach aphids (Myzus Persicae Sulzer) were maintained on cabbage. Leaves (Diameter=3 cm) of approximately 15-30 aphids were put in the culture dishes. Bioactivity tests were used the method of Airbrush Foliar Spray, pressure=10 psi (0.7 kg/cm2), spray volume=0.5 mL. The studies were conducted at […] 25±1 C in incubator cabinets with 60±5% RH. Survey the survival aphids after 48 h and calculate the death rates.

[10] = 25 mg/L, comparative test (Table 129)
[11] = 100 mg/L, comparative test (Table 132)

SMILES: CC(COc1ccn(-c2ccc(Cl)cc2)n1)Nc1ncnc2scc(Cl)c12 (stereo not drawn) [Compound 44-19]
- inhibition at 2.8 ppm [1]: > 80%
- inhibition at 8.3 ppm [1]: > 80%
- inhibition at 25 ppm [1]: > 80%
- Insecticidal activity against carmine spider mite (%) ([2]; 100 mg/L): 100%
- Insecticidal activity against carmine spider mite (%) ([2]; 600 mg/L): 100%
- inhibition at 25 µg/mL [3, 10]: 100%
- inhibition at 100 µg/mL [4]: 100%
- inhibition at 25 ppm [5]: > 80%

SMILES: Cc1c(Cl)ncnc1NCCCOc1ccn(-c2ccc(C(F)(F)F)cc2)n1 [Compound 122-69]
- protective activity (%) against cucumber anthracnose [6, 11]: 85%
- protective activity (%) against wheat powdery mildew [4]: 100%

SMILES: COc1c(Cl)ncnc1NCCCOc1ccn(-c2ccc(C(F)(F)F)cc2)n1 [Compound 123-69]
- protective activity (%) against cucumber anthracnose [6, 11]: 90%
- protective activity (%) against wheat powdery mildew [4]: 100%

SMILES: Cc1cc(N(C)Cc2cnn(-c3ccccc3)c2)nc(C(C)C)n1 [CK4]
- inhibition at 25 ppm [1]: 0%
- control effect against corn rust (%) ([7]; 25 mg/L): 0%
- control effect against corn rust (%) ([7]; 100 mg/L): 0%
- inhibition at 100 µg/mL [6, 11]: 0%
- Insecticidal activity against carmine spider mite (%) ([2]; 600 mg/L): 59%
- inhibition at 25 µg/mL [3, 10]: 0%
- inhibition at 100 µg/mL [4]: 0%
- inhibition at 25 ppm [5]: 0%
- Insecticidal activity against diamond back moth (%) [8]: 0%
- Insecticidal activity against peach aphid (%) [9]: 0%

SMILES: CCc1ncnc(NCCOc2ccn(-c3c(Cl)cc(Cl)cc3Cl)n2)c1Cl [Compound 32-30]
- protective activity (%) against cucumber downy mildew [3, 10]: 100%
- protective activity (%) against wheat powdery mildew [4]: 100%

SMILES: CCc1ncnc(NCc2cnn(-c3ccccc3)c2C)c1Cl [CK1]
- inhibition at 25 ppm [1]: 0%
- inhibition at 25 µg/mL [3, 10]: 20%
- inhibition at 25 ppm [5]: 0%
- Insecticidal activity against diamond back moth (%) [8]: 43%
- Insecticidal activity against peach aphid (%) [9]: 0%

SMILES: FC(F)(F)c1ccc(-n2ccc(OCCCNc3ncnc4ccccc34)n2)cc1 [Compound 127-69]
- protective activity (%) against cucumber anthracnose [6, 11]: 92%
- protective activity (%) against cucumber downy mildew [3, 10]: 70%
- protective activity (%) against wheat powdery mildew [4]: 100%

SMILES: CC(COc1ccn(-c2ccc(Cl)cc2)n1)Nc1ncnc(Cl)c1Cl (stereo not drawn) [Compound 35-19]
- protective activity (%) against cucumber downy mildew [3, 10]: 100%
- protective activity (%) against wheat powdery mildew [4]: 70%

SMILES: Clc1ccc(-n2ccc(OCCNc3ncnc4scc(Cl)c34)n2)c(Cl)c1 [Compound 42-21]
- protective activity (%) against cucumber downy mildew [3, 10]: 100%

SMILES: Clc1cccc(-n2ccc(OCCNc3ncnc4ccccc34)n2)c1 [Compound 40-18]
- protective activity (%) against cucumber downy mildew [3, 10]: 100%

SMILES: Cc1cc(N(C)Cc2c(C)nn(-c3ccccc3)c2C)nc(C)n1 [CK5]
- inhibition at 25 ppm [1]: 0%
- control effect against corn rust (%) ([7]; 25 mg/L): 60%
- control effect against corn rust (%) ([7]; 100 mg/L): 70%
- inhibition at 100 µg/mL [6, 11]: 0%
- Insecticidal activity against carmine spider mite (%) ([2]; 600 mg/L): 58%
- inhibition at 25 µg/mL [3, 10]: 0%
- inhibition at 100 µg/mL [4]: 0%
- inhibition at 25 ppm [5]: 0%
- Insecticidal activity against diamond back moth (%) [8]: 0%
- Insecticidal activity against peach aphid (%) [9]: 22%

SMILES: Clc1csc2ncnc(NCCOc3ccn(-c4ccccc4)n3)c12 [Compound 42-1]
- protective activity (%) against cucumber anthracnose [6, 11]: 95%
- control against cucumber anthracnose [6]: 90%
- protective activity (%) against cucumber downy mildew [3, 10]: 100%

SMILES: CCc1ncnc(NC(C)COc2ccn(-c3ccc(Cl)cc3)n2)c1Cl (stereo not drawn) [Compound 37-19]
- control effect against corn rust (%) ([7]; 25 mg/L): 90%
- control effect against corn rust (%) ([7]; 100 mg/L): 100%
- Insecticidal activity against carmine spider mite (%) ([2]; 100 mg/L): 100%
- Insecticidal activity against carmine spider mite (%) ([2]; 600 mg/L): 100%
- protective activity (%) against wheat powdery mildew [4]: 95%
- Insecticidal activity against diamond back moth (%) [8]: 100%
- control against diamond back moth ([8]; 600 ppm, mortality after 72 h): 100%
- Insecticidal activity against peach aphid (%) [9]: 84%

SMILES: FC(F)c1ncnc(NCCCOc2ccn(-c3ccc(C(F)(F)F)cc3)n2)c1Cl [Compound 126-69]
- protective activity (%) against cucumber anthracnose [6, 11]: 95%
- protective activity (%) against cucumber downy mildew [3, 10]: 70%
- protective activity (%) against wheat powdery mildew [4]: 100%

SMILES: Clc1cc(Cl)c(-n2ccc(OCCNc3ncnc4ccccc34)n2)c(Cl)c1 [Compound 40-30]
- protective activity (%) against cucumber downy mildew [3, 10]: 100%

SMILES: Cc1ncnc(NCCOc2ccn(-c3c(Cl)cccc3Cl)n2)c1Cl [Compound 31-23]
- protective activity (%) against cucumber downy mildew [3, 10]: 100%

SMILES: Clc1ccccc1-n1ccc(OCCNc2ncnc3scc(Cl)c23)n1 [Compound 42-17]
- protective activity (%) against cucumber downy mildew [3, 10]: 100%

SMILES: CCc1ncnc(NCCCOc2ccn(-c3ccc(C(F)(F)F)cc3)n2)c1Cl [Compound 125-69]
- protective activity (%) against wheat powdery mildew [4]: 100%

SMILES: Clc1ccc(-n2ccc(OCCNc3ncnc4ccccc34)n2)cc1 [Compound 40-19]
- protective activity (%) against cucumber anthracnose [6, 11]: 100%
- protective activity (%) against cucumber downy mildew [3, 10]: 96%

SMILES: Fc1ccc(-n2ccc(OCCNc3ncnc4ccccc34)n2)cc1 [Compound 40-4]
- protective activity (%) against cucumber downy mildew [3, 10]: 100%

SMILES: Cc1ncnc(NCCOc2ccn(-c3c(Cl)cc(Cl)cc3Cl)n2)c1Cl [Compound 31-30]
- protective activity (%) against cucumber downy mildew [3, 10]: 100%
- protective activity (%) against wheat powdery mildew [4]: 98%

SMILES: Cc1ncnc(NCCOc2ccn(-c3ccc(Cl)cc3)n2)c1Cl [Compound 31-19]
- inhibition at 100 µg/mL [6]: 90%
- inhibition at 25 µg/mL [3]: 100%

SMILES: Clc1cccc(-n2ccc(OCCNc3ncnc4scc(Cl)c34)n2)c1 [Compound 42-18]
- protective activity (%) against cucumber downy mildew [3, 10]: 100%

SMILES: Clc1ccc(-n2ccc(OCCNc3ncnc4ccccc34)n2)c(Cl)c1 [Compound 40-21]
- protective activity (%) against cucumber downy mildew [3, 10]: 100%

SMILES: Cc1ccc(-n2ccc(OCCNc3ncnc4ccccc34)n2)cc1 [Compound 40-57]
- protective activity (%) against cucumber anthracnose [6, 11]: 98%
- control against cucumber anthracnose [6]: 90%

SMILES: CCc1ncnc(NCc2cnn(-c3ccccc3)c2C(F)(F)F)c1Cl [CK2]
- inhibition at 25 ppm [1]: 0%
- inhibition at 25 µg/mL [3, 10]: 20%
- inhibition at 100 µg/mL [4]: 50%
- inhibition at 25 ppm [5]: 0%
- Insecticidal activity against diamond back moth (%) [8]: 20%

SMILES: FC(F)(F)c1ccc(-n2ccc(OCCCNc3ncnc4scc(Cl)c34)n2)cc1 [Compound 128-69]
- protective activity (%) against wheat powdery mildew [4]: 100%

SMILES: FC(F)(F)c1ccc(-n2ccc(OCCNc3ncnc4scc(Cl)c34)n2)cc1 [Compound 42-69]
- control effect against corn rust (%) ([7]; 25 mg/L): 85%
- control effect against corn rust (%) ([7]; 100 mg/L): 90%
- protective activity (%) against cucumber anthracnose [6, 11]: 95%
- protective activity (%) against cucumber downy mildew [3, 10]: 80%
- protective activity (%) against wheat powdery mildew [4]: 100%

SMILES: c1ccc(-n2ccc(OCCNc3ncnc4ccccc34)n2)cc1 [Compound 40-1]
- protective activity (%) against cucumber downy mildew [3, 10]: 70%
